From the NIST ThermoML archive (doi:10.1016/j.jct.2015.09.036)
± gives the expanded uncertainty stated by the source.

Assays:
[1] = 303.15 K, 100 kPa, Liquid; for viscosity: Capillary tube (Ostwald / Ubbelohde) method; for speed of sound: Frequency=2 MHz, Linear variable-path acoustic interferometer; for mass density: Pycnometric method
[2] = xn = mol fraction of the nth substance listed; conditions: 303.15 K, 100 kPa, Liquid; for viscosity: Capillary tube (Ostwald / Ubbelohde) method; for speed of sound: Frequency=2 MHz, Linear variable-path acoustic interferometer; for mass density: Pycnometric method

Clc1ccccc1 [chlorobenzene]
viscosity [1]: 0.724 ± 0.03 mPa·s | speed of sound [1]: 1251.8 ± 2.1 m/s | mass density [1]: 1095.2 ± 4 kg/m3

Clc1ccccc1 [chlorobenzene] + CCCCC(CC)COP(=O)(O)OCC(CC)CCCC
viscosity ([2]; x2 = 0): 0.724 ± 0.03 mPa·s | speed of sound ([2]; x2 = 0): 1251.8 ± 2.1 m/s | mass density ([2]; x2 = 0): 1095.2 ± 4 kg/m3

CCCCC(CC)COP(=O)(O)OCC(CC)CCCC (configuration not stated) [bis(2-ethylhexyl) hydrogen phosphate] + O=[N+]([O-])c1ccccc1
viscosity ([2]; x1 = 0.0912): 2.409 ± 0.099 mPa·s | viscosity ([2]; x1 = 0.1743): 2.925 ± 0.12 mPa·s | viscosity ([2]; x1 = 0.2624): 3.319 ± 0.14 mPa·s | viscosity ([2]; x1 = 0.3698): 4.274 ± 0.18 mPa·s | viscosity ([2]; x1 = 0.4211): 4.689 ± 0.19 mPa·s | viscosity ([2]; x1 = 0.4779): 5.585 ± 0.23 mPa·s | viscosity ([2]; x1 = 0.5326): 6.687 ± 0.28 mPa·s | viscosity ([2]; x1 = 0.6102): 8.662 ± 0.36 mPa·s | viscosity ([2]; x1 = 0.6933): 10.95 ± 0.46 mPa·s | viscosity ([2]; x1 = 0.7299): 11.91 ± 0.5 mPa·s | viscosity ([2]; x1 = 0.7867): 13.51 ± 0.57 mPa·s | viscosity ([2]; x1 = 0.8598): 15.51 ± 0.66 mPa·s | viscosity ([2]; x1 = 0.9387): 17.75 ± 0.76 mPa·s | viscosity ([2]; x1 = 1): 19.29 ± 0.83 mPa·s | speed of sound ([2]; x1 = 0.0912): 1429.5 ± 2.2 m/s | speed of sound ([2]; x1 = 0.1743): 1415.6 ± 2.3 m/s | speed of sound ([2]; x1 = 0.2624): 1401.5 ± 2.3 m/s | speed of sound ([2]; x1 = 0.3698): 1385.2 ± 2.4 m/s | speed of sound ([2]; x1 = 0.4211): 1377.5 ± 2.4 m/s | speed of sound ([2]; x1 = 0.4779): 1369.1 ± 2.4 m/s | speed of sound ([2]; x1 = 0.5326): 1361.1 ± 2.5 m/s | speed of sound ([2]; x1 = 0.6102): 1349.8 ± 2.5 m/s | speed of sound ([2]; x1 = 0.6933): 1337.6 ± 2.6 m/s | speed of sound ([2]; x1 = 0.7299): 1332.2 ± 2.6 m/s | speed of sound ([2]; x1 = 0.7867): 1323.9 ± 2.6 m/s | speed of sound ([2]; x1 = 0.8598): 1313.2 ± 2.7 m/s | speed of sound ([2]; x1 = 0.9387): 1301.9 ± 2.7 m/s | speed of sound ([2]; x1 = 1): 1293 ± 2.8 m/s | mass density ([2]; x1 = 0.0912): 1139 ± 4.1 kg/m3 | mass density ([2]; x1 = 0.1743): 1104.1 ± 4.1 kg/m3 | mass density ([2]; x1 = 0.2624): 1075.4 ± 4.1 kg/m3 | mass density ([2]; x1 = 0.3698): 1048.6 ± 4.1 kg/m3 | mass density ([2]; x1 = 0.4211): 1038.1 ± 4.1 kg/m3 | mass density ([2]; x1 = 0.4779): 1027.1 ± 4.1 kg/m3 | mass density ([2]; x1 = 0.5326): 1017.4 ± 4.1 kg/m3 | mass density ([2]; x1 = 0.6102): 1004.6 ± 4.1 kg/m3 | mass density ([2]; x1 = 0.6933): 992.8 ± 4.1 kg/m3 | mass density ([2]; x1 = 0.7299): 988.1 ± 4.1 kg/m3 | mass density ([2]; x1 = 0.7867): 981.4 ± 4.1 kg/m3 | mass density ([2]; x1 = 0.8598): 973.6 ± 4.1 kg/m3 | mass density ([2]; x1 = 0.9387): 966.2 ± 4.1 kg/m3 | mass density ([2]; x1 = 1): 961.3 ± 4.1 kg/m3

O=[N+]([O-])c1ccccc1 [nitrobenzene] + CCCCC(CC)COP(=O)(O)OCC(CC)CCCC
viscosity ([2]; x2 = 0): 1.611 ± 0.066 mPa·s | speed of sound ([2]; x2 = 0): 1445.6 ± 2.2 m/s | mass density ([2]; x2 = 0): 1193.6 ± 4.1 kg/m3

CCCCC(CC)COP(=O)(O)OCC(CC)CCCC (configuration not stated) [bis(2-ethylhexyl) hydrogen phosphate] + Clc1ccccc1
viscosity ([2]; x1 = 0.0568): 0.917 ± 0.038 mPa·s | viscosity ([2]; x1 = 0.1474): 1.535 ± 0.063 mPa·s | viscosity ([2]; x1 = 0.2143): 1.859 ± 0.076 mPa·s | viscosity ([2]; x1 = 0.3498): 2.804 ± 0.12 mPa·s | viscosity ([2]; x1 = 0.4357): 3.777 ± 0.16 mPa·s | viscosity ([2]; x1 = 0.4788): 4.502 ± 0.19 mPa·s | viscosity ([2]; x1 = 0.5322): 5.526 ± 0.23 mPa·s | viscosity ([2]; x1 = 0.6285): 7.879 ± 0.33 mPa·s | viscosity ([2]; x1 = 0.7146): 10.49 ± 0.44 mPa·s | viscosity ([2]; x1 = 0.7704): 12.21 ± 0.52 mPa·s | viscosity ([2]; x1 = 0.8433): 14.56 ± 0.62 mPa·s | viscosity ([2]; x1 = 0.8789): 15.86 ± 0.68 mPa·s | viscosity ([2]; x1 = 0.9501): 17.84 ± 0.77 mPa·s | viscosity ([2]; x1 = 1): 19.29 ± 0.83 mPa·s | speed of sound ([2]; x1 = 0.0568): 1253.2 ± 2.2 m/s | speed of sound ([2]; x1 = 0.1474): 1255.5 ± 2.2 m/s | speed of sound ([2]; x1 = 0.2143): 1257.7 ± 2.2 m/s | speed of sound ([2]; x1 = 0.3498): 1262.8 ± 2.3 m/s | speed of sound ([2]; x1 = 0.4357): 1266.4 ± 2.4 m/s | speed of sound ([2]; x1 = 0.4788): 1268.4 ± 2.4 m/s | speed of sound ([2]; x1 = 0.5322): 1270.8 ± 2.4 m/s | speed of sound ([2]; x1 = 0.6285): 1275.4 ± 2.5 m/s | speed of sound ([2]; x1 = 0.7146): 1279.5 ± 2.6 m/s | speed of sound ([2]; x1 = 0.7704): 1282.2 ± 2.6 m/s | speed of sound ([2]; x1 = 0.8433): 1285.7 ± 2.6 m/s | speed of sound ([2]; x1 = 0.8789): 1287.3 ± 2.7 m/s | speed of sound ([2]; x1 = 0.9501): 1290.8 ± 2.7 m/s | speed of sound ([2]; x1 = 1): 1293 ± 2.8 m/s | mass density ([2]; x1 = 0.0568): 1075.2 ± 4 kg/m3 | mass density ([2]; x1 = 0.1474): 1051.9 ± 4 kg/m3 | mass density ([2]; x1 = 0.2143): 1038.4 ± 4.1 kg/m3 | mass density ([2]; x1 = 0.3498): 1017.9 ± 4.1 kg/m3 | mass density ([2]; x1 = 0.4357): 1007.6 ± 4.1 kg/m3 | mass density ([2]; x1 = 0.4788): 1002.9 ± 4.1 kg/m3 | mass density ([2]; x1 = 0.5322): 997.1 ± 4.1 kg/m3 | mass density ([2]; x1 = 0.6285): 987.8 ± 4.1 kg/m3 | mass density ([2]; x1 = 0.7146): 980.4 ± 4.1 kg/m3 | mass density ([2]; x1 = 0.7704): 975.8 ± 4.1 kg/m3 | mass density ([2]; x1 = 0.8433): 970.4 ± 4.1 kg/m3 | mass density ([2]; x1 = 0.8789): 968 ± 4.1 kg/m3 | mass density ([2]; x1 = 0.9501): 963.8 ± 4.1 kg/m3 | mass density ([2]; x1 = 1): 961.3 ± 4.1 kg/m3

CCCCC(CC)COP(=O)(O)OCC(CC)CCCC (configuration not stated) [bis(2-ethylhexyl) hydrogen phosphate] + Cc1ccccc1
viscosity ([2]; x1 = 0.0896): 0.722 ± 0.03 mPa·s | viscosity ([2]; x1 = 0.1624): 0.907 ± 0.037 mPa·s | viscosity ([2]; x1 = 0.2077): 1.086 ± 0.045 mPa·s | viscosity ([2]; x1 = 0.2898): 1.576 ± 0.065 mPa·s | viscosity ([2]; x1 = 0.3279): 1.914 ± 0.079 mPa·s | viscosity ([2]; x1 = 0.4205): 3.098 ± 0.13 mPa·s | viscosity ([2]; x1 = 0.5082): 4.679 ± 0.19 mPa·s | viscosity ([2]; x1 = 0.5903): 6.432 ± 0.27 mPa·s | viscosity ([2]; x1 = 0.6814): 8.931 ± 0.38 mPa·s | viscosity ([2]; x1 = 0.7388): 10.84 ± 0.46 mPa·s | viscosity ([2]; x1 = 0.8105): 13.17 ± 0.56 mPa·s | viscosity ([2]; x1 = 0.8876): 15.68 ± 0.67 mPa·s | viscosity ([2]; x1 = 0.9427): 17.43 ± 0.75 mPa·s | viscosity ([2]; x1 = 1): 19.29 ± 0.83 mPa·s | speed of sound ([2]; x1 = 0.0896): 1283.7 ± 2.2 m/s | speed of sound ([2]; x1 = 0.1624): 1284.5 ± 2.2 m/s | speed of sound ([2]; x1 = 0.2077): 1285.1 ± 2.2 m/s | speed of sound ([2]; x1 = 0.2898): 1286 ± 2.3 m/s | speed of sound ([2]; x1 = 0.3279): 1286.6 ± 2.3 m/s | speed of sound ([2]; x1 = 0.4205): 1287.4 ± 2.4 m/s | speed of sound ([2]; x1 = 0.5082): 1288.2 ± 2.4 m/s | speed of sound ([2]; x1 = 0.5903): 1289 ± 2.5 m/s | speed of sound ([2]; x1 = 0.6814): 1289.9 ± 2.5 m/s | speed of sound ([2]; x1 = 0.7388): 1290.5 ± 2.6 m/s | speed of sound ([2]; x1 = 0.8105): 1291.2 ± 2.6 m/s | speed of sound ([2]; x1 = 0.8876): 1291.9 ± 2.7 m/s | speed of sound ([2]; x1 = 0.9427): 1292.5 ± 2.7 m/s | speed of sound ([2]; x1 = 1): 1293 ± 2.8 m/s | mass density ([2]; x1 = 0.0896): 884.9 ± 4 kg/m3 | mass density ([2]; x1 = 0.1624): 902.1 ± 4 kg/m3 | mass density ([2]; x1 = 0.2077): 910.5 ± 4 kg/m3 | mass density ([2]; x1 = 0.2898): 923.1 ± 4 kg/m3 | mass density ([2]; x1 = 0.3279): 928.8 ± 4 kg/m3 | mass density ([2]; x1 = 0.4205): 937.6 ± 4 kg/m3 | mass density ([2]; x1 = 0.5082): 944.5 ± 4.1 kg/m3 | mass density ([2]; x1 = 0.5903): 949.3 ± 4.1 kg/m3 | mass density ([2]; x1 = 0.6814): 953.3 ± 4.1 kg/m3 | mass density ([2]; x1 = 0.7388): 955.2 ± 4.1 kg/m3 | mass density ([2]; x1 = 0.8105): 957.1 ± 4.1 kg/m3 | mass density ([2]; x1 = 0.8876): 958.8 ± 4.1 kg/m3 | mass density ([2]; x1 = 0.9427): 960.1 ± 4.1 kg/m3 | mass density ([2]; x1 = 1): 961.3 ± 4.1 kg/m3

CCCCC(CC)COP(=O)(O)OCC(CC)CCCC (configuration not stated) [bis(2-ethylhexyl) hydrogen phosphate]
viscosity [1]: 19.29 ± 0.83 mPa·s | speed of sound [1]: 1293 ± 2.8 m/s | mass density [1]: 961.3 ± 4.1 kg/m3

Cc1ccccc1 [toluene]
viscosity [1]: 0.528 ± 0.022 mPa·s | speed of sound [1]: 1282.6 ± 2.1 m/s | mass density [1]: 856.2 ± 4 kg/m3

Cc1ccccc1 [toluene] + CCCCC(CC)COP(=O)(O)OCC(CC)CCCC
viscosity ([2]; x2 = 0): 0.528 ± 0.022 mPa·s | speed of sound ([2]; x2 = 0): 1282.6 ± 2.1 m/s | mass density ([2]; x2 = 0): 856.2 ± 4 kg/m3

O=[N+]([O-])c1ccccc1 [nitrobenzene]
viscosity [1]: 1.611 ± 0.066 mPa·s | speed of sound [1]: 1445.6 ± 2.2 m/s | mass density [1]: 1193.6 ± 4.1 kg/m3
